The source made the active and inactive calls. No cut-off for these calls is given here.
Columns and labels:
HL-60 = test: Cytotoxicity against human HL60 cells after 48 hrs by cell counting kit-8 assay; format: functional, cell-based; settings: HL-60, 48 h
A549 = test: Cytotoxicity against human A549 cells after 48 hrs by MTT assay; format: functional, cell-based; settings: A549, 48 h
[1] = Cytotoxicity against human HCT8 cells after 48 hrs by MTT assay; format: functional, cell-based; settings: HCT-8, 48 h
HeLa [2] = test: Cytotoxicity against human HeLa cells after 48 hrs by MTT assay; format: functional, cell-based
HeLa [3] = test: Cell cycle arrest in human HeLa cells assessed as accumulation at sub-G1 phase at 5 uM after 24 hrs by propidium iodide staining-based FACS flow cytometric analysis (reference value: 1.8%); format: functional
HeLa [4] = test: Induction of apoptosis in human HeLa cells assessed as upregulation of Bax protein expression at 5 uM by Western blotting analysis; format: functional, cell-based; settings: TDE = time-dependent effect
HeLa [5] = test: Cell cycle arrest in human HeLa cells assessed as accumulation at G2/M phase at 5 uM after 12 hrs by propidium iodide staining-based FACS flow cytometric analysis (reference value: 22.7%); format: functional
HeLa [6] = test: Cell cycle arrest in human HeLa cells assessed as accumulation at G1 phase at 10 uM by propidium iodide staining-based FACS flow cytometric analysis (reference value: 54.7%); format: functional
HeLa [7] = test: Induction of apoptosis in human HeLa cells assessed as upregulation of caspase-3 protein expression at 5 uM by Western blotting analysis; format: functional, cell-based; settings: TDE = time-dependent effect
HeLa [8] = test: Cell cycle arrest in human HeLa cells assessed as accumulation at sub-G1 phase at 10 uM by propidium iodide staining-based FACS flow cytometric analysis (reference value: 4.4%); format: functional
HeLa [9] = test: Cell cycle arrest in human HeLa cells assessed as accumulation at G2/M phase at 0.5 uM by propidium iodide staining-based FACS flow cytometric analysis (reference value: 15.0%); format: functional
HeLa [10] = test: Cell cycle arrest in human HeLa cells assessed as accumulation at G1 phase at 5 uM by propidium iodide staining-based FACS flow cytometric analysis (reference value: 54.7%); format: functional
HeLa [11] = test: Induction of apoptosis in human HeLa cells assessed as upregulation of p53 protein expression at 5 uM by Western blotting analysis; format: functional, cell-based; settings: TDE = time-dependent effect
HeLa [12] = test: Cell cycle arrest in human HeLa cells assessed as accumulation at sub-G1 phase at 5 uM by propidium iodide staining-based FACS flow cytometric analysis (reference value: 4.4%); format: functional
DNA [13] = test: Binding affinity to calf thymus DNA assessed as increase in complex fluorescence using 1 to 6 uM of DNA at 1 uM after 5 mins by fluorescence assay; format: nucleic-acid assay; settings: Bos taurus
HeLa [14] = test: Cell cycle arrest in human HeLa cells assessed as accumulation at sub-G1 phase by propidium iodide staining-based FACS flow cytometric analysis; format: functional
HeLa [15] = test: Induction of apoptosis in human HeLa cells assessed as upregulation of Bax protein expression at 5 uM after 1 to 24 hrs by Western blotting analysis; format: functional, cell-based
HeLa [16] = test: Cell cycle arrest in human HeLa cells assessed as accumulation at G1 phase at 5 uM after 12 hrs by propidium iodide staining-based FACS flow cytometric analysis (reference value: 57.2%); format: functional
HeLa [17] = test: Cell cycle arrest in human HeLa cells assessed as accumulation at sub-G1 phase at 0.5 uM by propidium iodide staining-based FACS flow cytometric analysis (reference value: 4.4%); format: functional
HeLa [18] = test: Induction of apoptosis in human HeLa cells assessed as upregulation of p53 protein expression at 5 uM after 1 to 24 hrs by Western blotting analysis; format: functional, cell-based
HeLa [19] = test: Cell cycle arrest in human HeLa cells assessed as accumulation at G2/M phase at 5 uM after 24 hrs by propidium iodide staining-based FACS flow cytometric analysis (reference value: 22.7%); format: functional
HeLa [20] = test: Cell cycle arrest in human HeLa cells assessed as accumulation at S phase at 5 uM after 24 hrs by propidium iodide staining-based FACS flow cytometric analysis (reference value: 9.0%); format: functional
HeLa [21] = test: Induction of apoptosis in human HeLa cells assessed as upregulation of caspase-3 protein expression at 5 uM after 1 to 24 hrs by Western blotting analysis; format: functional, cell-based
HeLa [22] = test: Cell cycle arrest in human HeLa cells assessed as accumulation at G2/M phase at 10 uM by propidium iodide staining-based FACS flow cytometric analysis (reference value: 15.0%); format: functional
HeLa [23] = test: Cell cycle arrest in human HeLa cells assessed as accumulation at S phase at 5 uM by propidium iodide staining-based FACS flow cytometric analysis (reference value: 16.3%); format: functional
HeLa [24] = test: Cell cycle arrest in human HeLa cells assessed as accumulation at S phase at 0.5 uM by propidium iodide staining-based FACS flow cytometric analysis (reference value: 16.3%); format: functional
HeLa [25] = test: Cell cycle arrest in human HeLa cells assessed as accumulation at S phase at 10 uM by propidium iodide staining-based FACS flow cytometric analysis (reference value: 16.3%); format: functional
HeLa [26] = test: Cell cycle arrest in human HeLa cells assessed as accumulation at S phase at 5 uM after 12 hrs by propidium iodide staining-based FACS flow cytometric analysis (reference value: 9.0%); format: functional
DNA [27] = test: Binding affinity to calf thymus DNA assessed as change in DNA conformation from B-form to C-form at 5 to 40 ug/ml after 24 hrs by circular dichorism spectroscopy; format: nucleic-acid assay; settings: Bos taurus
HeLa [28] = test: Cell cycle arrest in human HeLa cells assessed as accumulation at sub-G1 phase at 5 uM after 12 hrs by propidium iodide staining-based FACS flow cytometric analysis (reference value: 1.8%); format: functional
HeLa [29] = test: Cell cycle arrest in human HeLa cells assessed as accumulation at G1 phase at 5 uM after 24 hrs by propidium iodide staining-based FACS flow cytometric analysis (reference value: 57.2%); format: functional
HeLa [30] = test: Cell cycle arrest in human HeLa cells assessed as accumulation at G1 phase at 0.5 uM by propidium iodide staining-based FACS flow cytometric analysis (reference value: 54.7%); format: functional
HeLa [31] = test: Cell cycle arrest in human HeLa cells assessed as accumulation at G2/M phase at 5 uM by propidium iodide staining-based FACS flow cytometric analysis (reference value: 15.0%); format: functional

COc1cc([C@@H]2c3cc4c(cc3[C@@H](OC(=O)N3CCN(c5ccc([N+](=O)[O-])cc5)CC3)[C@H]3COC(=O)[C@H]23)OCO4)cc(OC)c1OC(=O)N1CCN(c2ccc([N+](=O)[O-])cc2)CC1
IC50 (HL-60): 350 nM
IC50 (A549): 56900 nM
IC50 [1]: 10 nM

COc1cc([C@@H]2c3cc4c(cc3[C@@H](OC(=O)N[C@@H](C)C(=O)N3CCN(c5ccc([N+](=O)[O-])cc5)CC3)[C@H]3COC(=O)[C@H]23)OCO4)cc(OC)c1O
IC50 (HL-60): 130 nM
IC50 (A549): 19000 nM
IC50 (HeLa [2]): > 100000 nM
IC50 [1]: 710 nM

COc1cc([C@@H]2c3cc4c(cc3[C@@H](OC(=O)N3CCN(C5CCCC5)CC3)[C@H]3COC(=O)[C@H]23)OCO4)cc(OC)c1O
IC50 (HL-60): < 10 nM
IC50 (A549): 3890 nM
IC50 (HeLa [2]): 4400 nM
IC50 [1]: 1620 nM

COc1cc([C@@H]2c3cc4c(cc3[C@@H](OC(=O)N[C@H](CCSC)C(=O)N3CCN(c5ccc([N+](=O)[O-])cc5)CC3)[C@H]3COC(=O)[C@H]23)OCO4)cc(OC)c1O
IC50 (HL-60): 20 nM
IC50 (A549): > 100000 nM
IC50 (HeLa [2]): > 100000 nM
IC50 [1]: 850 nM

COc1cc([C@@H]2c3cc4c(cc3[C@@H](OC(=O)NC3CC3)[C@H]3COC(=O)[C@H]23)OCO4)cc(OC)c1O
IC50 (HL-60): 160 nM
IC50 (A549): 18300 nM
IC50 (HeLa [2]): 10800 nM
IC50 [1]: 80 nM

CCCNC(=O)O[C@@H]1c2cc3c(cc2[C@@H](c2cc(OC)c(O)c(OC)c2)[C@H]2C(=O)OC[C@@H]21)OCO3
IC50 (HL-60): 90 nM
IC50 (A549): 8830 nM
IC50 (HeLa [2]): 13200 nM
IC50 [1]: 185 nM

COc1cc([C@@H]2c3cc4c(cc3[C@@H](OC(=O)N[C@H](C(=O)N3CCN(c5ccc([N+](=O)[O-])cc5)CC3)C(C)C)[C@H]3COC(=O)[C@H]23)OCO4)cc(OC)c1O
IC50 (HL-60): 260 nM
IC50 (A549): 8320 nM
IC50 (HeLa [2]): > 100000 nM
IC50 [1]: 10 nM

COc1cc([C@@H]2c3cc4c(cc3[C@@H](OC(=O)NC3CCCC3)[C@H]3COC(=O)[C@H]23)OCO4)cc(OC)c1O
IC50 (HL-60): 210 nM
IC50 (A549): 4540 nM
IC50 (HeLa [2]): 3750 nM
IC50 [1]: 330 nM

COc1cc([C@@H]2c3cc4c(cc3[C@@H](OC(=O)N[C@@H](CCSC)C(=O)N3CCN(c5ccc([N+](=O)[O-])cc5)CC3)[C@H]3COC(=O)[C@H]23)OCO4)cc(OC)c1O
IC50 (HL-60): 10 nM
IC50 (A549): > 100000 nM
IC50 (HeLa [2]): 49400 nM
IC50 [1]: 570 nM

COc1cc([C@@H]2c3cc4c(cc3[C@@H](OC(=O)N3CCN(c5ccc([N+](=O)[O-])cc5)CC3)[C@H]3COC(=O)[C@H]23)OCO4)cc(OC)c1O
Activity (HeLa [3]): 11.1%
Activity (HeLa [4]): tde
IC50 (HL-60): 170 nM
Activity (HeLa [5]): 29.9%
Activity (HeLa [6]): 26%
Activity (HeLa [7]): tde
Activity (HeLa [8]): 24.7%
IC50 (A549): 1670 nM
Activity (HeLa [9]): 20.5%
Activity (HeLa [10]): 33.9%
Activity (HeLa [11]): tde
Activity (HeLa [12]): 23%
Activity (DNA [13]): Active
Activity (HeLa [14]): Dose-dependent effect
Activity (HeLa [15]): Active
Activity (HeLa [16]): 43.8%
Activity (HeLa [17]): 21.7%
IC50 (HeLa [2]): 74 nM
Activity (HeLa [18]): Active
IC50 [1]: < 10 nM
Activity (HeLa [19]): 38.1%
Activity (HeLa [20]): 10.2%
Activity (HeLa [21]): Active
Activity (HeLa [22]): 29.1%
Activity (HeLa [23]): 10.2%
Activity (HeLa [24]): 9.8%
Activity (HeLa [25]): 13.1%
Activity (HeLa [26]): 10.2%
Activity (DNA [27]): Active
Activity (HeLa [28]): 4.1%
Activity (HeLa [29]): 33.3%
Activity (HeLa [30]): 35.9%
Activity (HeLa [31]): 22.5%

COc1cc([C@@H]2c3cc4c(cc3[C@@H](OC(=O)N[C@@H](Cc3ccccc3)C(=O)N3CCN(c5ccc([N+](=O)[O-])cc5)CC3)[C@H]3COC(=O)[C@H]23)OCO4)cc(OC)c1O
IC50 (HL-60): 30 nM
IC50 (A549): 9550 nM
IC50 (HeLa [2]): 4130 nM
IC50 [1]: 10 nM

COc1cc([C@@H]2c3cc4c(cc3[C@@H](OC(=O)N3CCOCC3)[C@H]3COC(=O)[C@H]23)OCO4)cc(OC)c1O
IC50 (HL-60): 10 nM
IC50 (A549): 8550 nM
IC50 (HeLa [2]): 8590 nM
IC50 [1]: 150 nM

COc1cc([C@@H]2c3cc4c(cc3[C@@H](OC(=O)N[C@H](Cc3ccccc3)C(=O)N3CCN(c5ccc([N+](=O)[O-])cc5)CC3)[C@H]3COC(=O)[C@H]23)OCO4)cc(OC)c1O
IC50 (HL-60): 40 nM
IC50 (A549): > 100000 nM
IC50 (HeLa [2]): 28600 nM
IC50 [1]: 70 nM

COc1cc([C@@H]2c3cc4c(cc3[C@@H](OC(=O)N3CCOCC3)[C@H]3COC(=O)[C@H]23)OCO4)cc(OC)c1OC(=O)N1CCOCC1
IC50 (HL-60): < 10 nM
IC50 (A549): > 100000 nM
IC50 (HeLa [2]): > 100000 nM
IC50 [1]: 130 nM

COc1cc([C@@H]2c3cc4c(cc3[C@@H](OC(=O)NC3CCCCC3)[C@H]3COC(=O)[C@H]23)OCO4)cc(OC)c1O
IC50 (HL-60): 270 nM
IC50 (A549): 26100 nM
IC50 (HeLa [2]): 5400 nM
IC50 [1]: 1240 nM

COc1cc([C@@H]2c3cc4c(cc3[C@@H](OC(=O)N3CCN(c5ccc(F)cc5)CC3)[C@H]3COC(=O)[C@H]23)OCO4)cc(OC)c1O
IC50 (HL-60): 330 nM
IC50 (A549): 5240 nM
IC50 (HeLa [2]): 1580 nM
IC50 [1]: 10 nM

COc1cc([C@@H]2c3cc4c(cc3[C@@H](OC(=O)N3CCN(C)CC3)[C@H]3COC(=O)[C@H]23)OCO4)cc(OC)c1O
IC50 (HL-60): 190 nM
IC50 (A549): 4180 nM
IC50 (HeLa [2]): 20000 nM
IC50 [1]: 30 nM

COc1cc([C@@H]2c3cc4c(cc3[C@@H](O[C@@H]3O[C@@H]5CO[C@@H](C)O[C@H]5[C@H](O)[C@H]3O)[C@H]3COC(=O)[C@H]23)OCO4)cc(OC)c1O [ETOPOSIDE]
IC50 (HeLa [2]): 2910 nM

— ChEMBL document CHEMBL3091367, “Synthesis and evaluation of the apoptosis inducing and CT DNA interaction properties of a series of 4β-carbamoyl 4'-O-demethylepipodophyllotoxins” (Eur J Med Chem, 2013)
